# Assay results published in patent publication US10375956B2, “Herbicidally active 2-(substituted-phenyl)-cyclopentane-1,3-dione compounds and derivatives thereof” (Syngenta Limited, priority 2013, dated 2019).
# Read-outs that look alike come from different tables or passages of the source.
# Key:
# Assay type in all cases: in vivo
# [1] = tested on: Echinochloa crus-galli (ECHCG); assay: Test 1 glasshouse assay, post-emergence herbicidal activity; conditions: 312 h, after 13 days, read-out: Percentage phytotoxicity ECHCG
# Procedure, shortened: (§1)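 Plants sprayed 8 days after sowing with active ingredient in acetone/water (50:50) containing 0.5% Tween 20, grown in glasshouse at 24/16°C day/night, 14 h light, 65% humidity. Phytotoxicity scored visually after 13 days as percentage damage (100% = total damage; 0% = none).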
# [2] = tested on: Alopecurus myosuroides (ALOMY); assay: as above; conditions: 312 h, after 13 days, read-out: Percentage phytotoxicity ALOMY
# Procedure, shortened: as §1
# Lolium perenne (LOLPE) = assay: Test 2 glasshouse assay (IF50 formulation, X-77), pre-emergence herbicidal activity; conditions: 480 h, 20DAA, read-out: Percentage phytotoxicity LOLPE
# Procedure, shortened: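 Plants in soil pots were sprayed 1 day (pre-emergence) or ~12 days (post-emergence) after sowing with IF50 formulation diluted in 0.2% v/v X-77. Cool species were grown at 20/16 °C day/night, 16 h light, 65% humidity. Visual % phytotoxicity was scored at 20DAA (pre) or 15DAA (post).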
# [3] = tested on: Sorghum vulgare Pers. (SORVU); assay: Test 2 glasshouse assay (IF50 formulation, X-77), post-emergence herbicidal activity; conditions: Sorghum bicolor, 360 h, 15 DAA, visual score, read-out: Post-emergence herbicidal activity (percentage phytotoxicity) SORVU; for pest or weed control at 125 g/ha: application rate 125 g/ha
# Procedure, shortened: (§2)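 Sow in soil → 1 d (pre) or ~12 d (post) at 24/18 °C, 16 h light, 65% RH → spray IF50 (50 g/L stock) in 0.2% v/v X-77, concentration set by application rate → water twice daily → visual % phytotoxicity 20DAA (pre) or 15DAA (post).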
# [4] = tested on: Digitaria sanguinalis (DIGSA); assay: as above; conditions: 360 h, 15 DAA, visual score, read-out: Post-emergence herbicidal activity (percentage phytotoxicity) DIGSA; for pest or weed control at 125 g/ha: application rate 125 g/ha
# Procedure, shortened: as §2
# Setaria faberi (SETFA) [5] = assay: as above; conditions: 360 h, 15 DAA, visual score, read-out: Post-emergence herbicidal activity (percentage phytotoxicity) SETFA; for pest or weed control at 125 g/ha: application rate 125 g/ha
# Procedure, shortened: as §2
# [6] = tested on: Brachiaria plantaginea (BRAPL); assay: as above; conditions: Urochloa plantaginea, 360 h, 15 DAA, visual score, read-out: Post-emergence herbicidal activity (percentage phytotoxicity) BRAPL; for pest or weed control at 125 g/ha: application rate 125 g/ha
# Procedure, shortened: as §2
# [7] = tested on: Echinochloa crus-galli (ECHCG); assay: Test 2 glasshouse assay (IF50 formulation, X-77), pre-emergence herbicidal activity; conditions: 480 h, 20DAA, read-out: Percentage phytotoxicity ECHCG
# Procedure, shortened: as §2
# [8] = tested on: Sorghum vulgare Pers. (SORVU); assay: as above; conditions: Sorghum bicolor, 480 h, 20DAA, read-out: Percentage phytotoxicity SORVU
# Procedure, shortened: as §2
# [9] = tested on: Digitaria sanguinalis (DIGSA); assay: as above; conditions: 480 h, 20DAA, read-out: Percentage phytotoxicity DIGSA
# Procedure, shortened: as §2
# Setaria faberi (SETFA) [10] = assay: as above; conditions: 480 h, 20DAA, read-out: Percentage phytotoxicity SETFA
# Procedure, shortened: as §2
# [11] = tested on: Panicum miliaceum (PANMI); assay: as above; conditions: 480 h, 20DAA, read-out: Percentage phytotoxicity PANMI
# Procedure, shortened: as §2
# [12] = tested on: Brachiaria plantaginea (BRAPL); assay: as above; conditions: Urochloa plantaginea, 480 h, 20DAA, read-out: Percentage phytotoxicity BRAPL
# Procedure, shortened: as §2
# [13] = post-emergence (Example 1B Table 2)
# [14] = post-emergence (Example 1B Table 1), 62.5 g/ha
# [15] = post-emergence (Example 1B Table 1)
smiles,measurement,setting,value
C#CCC1C(=O)C(c2c(C)cc(C)cc2C)C(=O)C1CC#C (stereo not drawn) [Compound A42],pest or weed control at 250 g/ha,[1]; [13],100%
same,pest or weed control at 250 g/ha,[2]; [13],90%
same,pest or weed control at 500 g/ha,Lolium perenne (LOLPE); 500 g/ha,100%
same,pest or weed control at 125 g/ha,[3],80%
same,pest or weed control at 500 g/ha,[3]; application rate 500 g/ha,100%
same,pest or weed control at 125 g/ha,[4],90%
same,pest or weed control at 500 g/ha,[4]; application rate 500 g/ha,100%
same,pest or weed control at 125 g/ha,Setaria faberi (SETFA) [5],90%
same,pest or weed control at 500 g/ha,Setaria faberi (SETFA) [5]; application rate 500 g/ha,100%
same,pest or weed control at 125 g/ha,[6],100%
same,pest or weed control at 500 g/ha,[6]; application rate 500 g/ha,100%
same,pest or weed control at 500 g/ha,[7]; 500 g/ha,100%
same,pest or weed control at 500 g/ha,[8]; 500 g/ha,80%
same,pest or weed control at 500 g/ha,[9]; 500 g/ha,70%
same,pest or weed control at 500 g/ha,Setaria faberi (SETFA) [10]; 500 g/ha,80%
same,pest or weed control at 500 g/ha,[11]; 500 g/ha,100%
same,pest or weed control at 500 g/ha,[12]; 500 g/ha,100%
C#CCC1CC(OC(C)=O)=C(c2c(C)cc(-c3ccc(F)cc3)cc2C)C1=O (stereo not drawn) [Compound A45],pest or weed control at 62.5 g/ha,[1]; [14],100%
same,pest or weed control at 250 g/ha,[1]; [15],100%
same,pest or weed control at 62.5 g/ha,[2]; [14],90%
same,pest or weed control at 250 g/ha,[2]; [15],100%
same,pest or weed control at 125 g/ha,Lolium perenne (LOLPE); 125 g/ha,90%
same,pest or weed control at 30 g/ha,[3]; application rate 30 g/ha,70%
same,pest or weed control at 125 g/ha,[3],100%
same,pest or weed control at 30 g/ha,[4]; application rate 30 g/ha,100%
same,pest or weed control at 125 g/ha,[4],100%
same,pest or weed control at 30 g/ha,Setaria faberi (SETFA) [5]; application rate 30 g/ha,90%
same,pest or weed control at 125 g/ha,Setaria faberi (SETFA) [5],100%
same,pest or weed control at 30 g/ha,[6]; application rate 30 g/ha,90%
same,pest or weed control at 125 g/ha,[6],100%
same,pest or weed control at 125 g/ha,[7]; 125 g/ha,80%
same,pest or weed control at 125 g/ha,[8]; 125 g/ha,80%
same,pest or weed control at 125 g/ha,[9]; 125 g/ha,90%
same,pest or weed control at 125 g/ha,Setaria faberi (SETFA) [10]; 125 g/ha,90%
same,pest or weed control at 125 g/ha,[11]; 125 g/ha,100%
same,pest or weed control at 125 g/ha,[12]; 125 g/ha,90%
